The target of series [1] is T1, hY4 (Homo sapiens, UniProt P50391).
T1 construct: expressed in transfected cells
Description: Inositol phosphate accumulation, COS-7 cells expressing hY4 and chimeric Gi/q protein. The class given is cell-based. The following applies: agonist, inositol phosphate turnover, COS7 cells; pEC50 ± SEM, n ≥ 2. The method, then: (§1) Agonist activity at Y receptors was assessed by measuring inositol phosphate accumulation in COS‐7 cells, as described previously (Hofmann et al., 2013). […] Stably transfected COS‐7‐hYR‐GαΔ6qi4myr cells were cultivated in DMEM with 4.5 g·L^−1 glucose and L‐glutamine supplemented with 10% (v/v) heat‐inactivated FCS, 100 units mL^−1 penicillin, 100 μg mL^−1 streptomycin, 1.5 mg mL^−1 G418‐sulfate and 146 μg mL^−1 hygromycin B in a humidified atmosphere at 37°C and 5% CO2. COS 7 cells were a gift from Prof. Dr. Torsten Schöneberg (Leipzig University). Stable cell lines were prepared as described in Mäde et al., 2014. Cells were grown in 48‐well plates (90 000 cells in 500 μL per well) for 24 h. […] Cells were lysed applying 0.1 M sodium hydroxide for 5 min at room temperature followed by neutralization with 0.2 M formic acid. […] Eluates were diluted with scintillation cocktail Ultima Gold (Perkin Elmer) and measured by a scintillation counter (Tri‐Carb 2910 TR from PerkinElmer). […] For each compound, global mean EC50 and pEC50 ± SEM (n ≥ 2) were calculated from the entire normalized concentration‐response curves by nonlinear regression using GraphPad Prism 5.0. […]
(§2) Activity at the human receptors, hY1, hY2, hY4 and hY5, was measured by accumulation of IP3, after channeling cAMP inhibition to phospholipase C activity, in COS7 cells.

The target of series [2] is T2, hY2 (Homo sapiens, UniProt P49146).
T2 construct: expressed in transfected cells
T2 sequence (P49146 1-381): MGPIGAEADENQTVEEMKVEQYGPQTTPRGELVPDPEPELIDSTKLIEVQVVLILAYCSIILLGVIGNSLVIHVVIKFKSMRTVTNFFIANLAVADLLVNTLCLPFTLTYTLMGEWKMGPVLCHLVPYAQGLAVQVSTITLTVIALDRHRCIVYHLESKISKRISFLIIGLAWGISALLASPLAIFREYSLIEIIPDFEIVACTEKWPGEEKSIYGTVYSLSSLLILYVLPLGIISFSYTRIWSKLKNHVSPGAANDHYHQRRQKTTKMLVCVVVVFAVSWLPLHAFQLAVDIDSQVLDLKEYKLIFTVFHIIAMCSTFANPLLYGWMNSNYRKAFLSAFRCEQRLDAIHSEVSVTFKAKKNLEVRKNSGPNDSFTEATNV
Nature of the series: Inositol phosphate accumulation, COS-7 cells expressing hY2 and chimeric Gi/q protein. The class given is cell-based. To be noted: agonist, inositol phosphate turnover, COS7 cells, 1 h stimulation, duplicate, at least two experiments. The method, then: as §1, §2

For series [3], the target named is T3, hY1 (Homo sapiens, UniProt P25929).
T3 construct: expressed in transfected cells
T3 sequence (P25929 1-384): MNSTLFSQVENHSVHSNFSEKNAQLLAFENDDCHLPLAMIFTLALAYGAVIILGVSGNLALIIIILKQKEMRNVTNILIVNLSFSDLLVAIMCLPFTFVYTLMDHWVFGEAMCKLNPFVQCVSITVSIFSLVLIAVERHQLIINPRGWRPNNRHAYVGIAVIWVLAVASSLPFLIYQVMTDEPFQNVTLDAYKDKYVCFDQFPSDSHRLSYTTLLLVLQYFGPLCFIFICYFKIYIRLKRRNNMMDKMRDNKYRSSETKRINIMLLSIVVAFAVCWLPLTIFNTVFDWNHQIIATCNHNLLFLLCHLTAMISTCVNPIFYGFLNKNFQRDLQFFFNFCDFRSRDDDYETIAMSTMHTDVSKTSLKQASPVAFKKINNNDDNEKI
Nature of the series: Inositol phosphate accumulation, COS-7 cells expressing hY1 and chimeric Gi/q protein. The format is cell-based. To be noted: agonist, inositol phosphate turnover, COS7 cells, 1 h stimulation, duplicate, at least two experiments. As to the method:
as §1, §2

Series [4] concerns the target T4, hY5 (Homo sapiens, UniProt Q15761).
T4 construct: expressed in transfected cells
T4 sequence (Q15761 1-445): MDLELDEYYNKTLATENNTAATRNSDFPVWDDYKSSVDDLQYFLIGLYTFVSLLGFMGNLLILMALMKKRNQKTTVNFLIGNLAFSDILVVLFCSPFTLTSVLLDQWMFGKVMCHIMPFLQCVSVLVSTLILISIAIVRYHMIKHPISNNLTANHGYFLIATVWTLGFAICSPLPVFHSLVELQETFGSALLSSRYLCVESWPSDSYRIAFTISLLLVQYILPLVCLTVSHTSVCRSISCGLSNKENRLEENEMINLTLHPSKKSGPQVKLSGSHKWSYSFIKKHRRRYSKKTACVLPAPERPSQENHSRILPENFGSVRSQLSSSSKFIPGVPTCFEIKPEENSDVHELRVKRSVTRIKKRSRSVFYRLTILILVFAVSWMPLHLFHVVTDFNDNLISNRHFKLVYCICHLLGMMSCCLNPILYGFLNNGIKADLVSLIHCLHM
Description: Inositol phosphate accumulation, COS-7 cells expressing hY5 and chimeric Gi/q protein. The format is cell-based. To be noted: agonist, inositol phosphate turnover, COS7 cells; pEC50 ± SEM, n ≥ 2. The method, then: as §1, §2

For series [5], the system named is WT mice. Nature of the series: Fear acquisition and consolidation after peripheral injection. The following applies: vs saline, n = 6 per group. The format is in vivo, mouse. As to the method:
(§3) Naïve WT (C57Bl/6NCrl) or Y4KO mice were used for fear conditioning experiments. Fear conditioning experiments were conducted during the light phase of the light/dark cycle in sound proof chambers (TSE Systems, Bad Homburg, Germany) by repetitive exposure of the mice to an auditory stimulus co‐terminating with a foot shock, as described in detail previously (Verma et al., 2012). Fear conditioning and context testing were performed in context A consisting of a transparent acrylic mouse conditioning chamber with a metal grid floor. The whole set‐up was enclosed by a sound attenuating chamber. Illumination was 80 lux, and chambers were cleaned with 70% ethanol. Fear recall as well as fear extinction and extinction recall was performed in a different context consisting of a dimly illuminated (10 lux) chamber with black, smooth walls and the floor cleaned with 1% acetic acid (context B).
(§4) On day 1 (context A), mice were subjected to a differential fear conditioning paradigm in which one auditory stimulus served as a CS because it was explicitly paired (CS+, 30 s white noise, 80 dB) with the US, whereas the second auditory stimulus was not paired (CS−, 30 s, 3.5 kHz, 80 dB). All animals received five CS− and five CS+ in an alternating order, starting with a CS+. The US co‐terminating with each CS+ consisted of a foot shock. […] On days 2 and 3, mice were tested for their context (context A for 15 min) and CS‐related fear memory (context B) respectively.
Fear conditioning was performed in WT (C57Bl6/NCrl) and Y4KO mice on day 1 (context A) as described in the previous paragraph. To avoid interference with postprandial released PP, mice were fasted overnight (16 h) before injection of the drug followed by fear extinction training. Water was freely available during the fasting period. Based on our previous results, a 16 h fasting period was required to reach our experimental aim (Verma et al., 2016). A control experiment was performed without food restriction (non‐fasting). [K^30(PEG2)]hPP2‐36 (1 mg·kg^−1) or saline was injected i.p. 60 min before behavioural testing, as indicated in the timeline of the respective experiments. For extinction experiments, mice were divided into two groups, receiving an i.p. injection of either the long‐acting Y4 receptor agonist [K^30(PEG2)]hPP2‐36 (1 mg·kg^−1) or saline in controls followed after 60 min by extinction training (extinction 1; 5 CS− and 25 CS+, context B). Mice were then tested on day 3 for extinction recall under drug‐free conditions by exposure to five CS+ (context B). To exclude any bias of group selection, another extinction session was performed on day 4 (extinction 2; 25 CS+, context B) followed by extinction recall on day 5 (five CS+; context B), both under drug‐free conditions. […]

For series [6], the system named is Y4KO mice. Description: Cued fear extinction after peripheral injection, Y4KO mice. The class given is in vivo, mouse. The following applies: 1 mg/kg i.p. 60 min before extinction, fasted 16 h, vs saline, n = 10 per group. As to the method: as §3
On day 1 (context A), mice were subjected to a differential fear conditioning paradigm in which one auditory stimulus served as a CS because it was explicitly paired (CS+, 30 s white noise, 80 dB) with the US, whereas the second auditory stimulus was not paired (CS−, 30 s, 3.5 kHz, 80 dB). All animals received five CS− and five CS+ in an alternating order, starting with a CS+. The US co‐terminating with each CS+ consisted of a foot shock. […]

In series [7] the test system is orexin neurons in the lateral hypothalamus. Description: c-Fos/orexin dual-labelling immunohistochemistry in lateral hypothalamus after fear extinction, WT mice. To be noted: i.p. 60 min before fear extinction, fasted 16 h, brains removed 90 min after testing, n = 7 per group. The class given is in vivo, mouse. The method, then:
A separate group of WT and Y4KO mice were fasted overnight (16 h), injected i.p. with [K^30(PEG2)]hPP2‐36 or saline and subjected to extinction training 60 min later. Using a cryostat 40 μm coronal, free‐floating sections were cut for subsequent immunohistochemistry.
Immunohistochemical analysis was performed on free‐floating, PFA‐fixed, 40 μm thick coronal sections using indirect peroxidase labelling, as described previously (Tasan et al., 2011). The following antisera were used: polyclonal rabbit anti‐c‐Fos (1:20 000 PC38, Calbiochem) and polyclonal rabbit anti‐pan‐orexin (1:1000, Abcam ab6214, Lot:GR63996‐1). In brief, coronal sections were incubated free‐floating in 10% normal goat serum (Biomedica, Vienna, Austria) in Tris–HCl buffered saline (TBS; 50 mM, pH 7.2) for 90 min, followed by incubation with primary antiserum. […]
The number of c‐Fos positive cells was obtained bilaterally from six matched sections per animal showing the lateral hypothalamus, at a magnification of 400×, in multiple separate fields and mean values were calculated for each mouse. Results are presented as number of immunoreactivity positive cells per section and expressed as mean ± SEM. […]

The test system of series [8] is male WT mice. Nature of the series: Motor activity over 24 h in a novel cage. The class given is in vivo, mouse. To be noted: 1 mg/kg i.p., 24 h in novel cage, vs saline, n = 8 vs 7. The method, then:
Male WT mice were injected i.p. with either the long‐acting Y4 receptor agonist [K^30(PEG2)]hPP2‐36 (1mg kg^−1) or saline. Activity measurements were performed for 24 h in a novel cage. Mice were single‐housed in standard cages with food and water ad libitum. Movements of the mice were detected by an infrared sensor throughout light and dark phase (TSE LabMaster InfraMot, Bad Homburg, Germany).
To exclude non‐specific effects of [K^30(PEG2)]hPP2‐36 on motor activity that may compromise freezing detection during extinction training, we first injected male WT mice i.p. with [K^30(PEG2)]hPP2‐36 or saline and subsequently observed the activity of the mice for 24 h in a novel cage (Supporting Information Figure S4).

The subject of series [9] is WT (C57Bl/6NCrl) mice. Description: Cued fear extinction after peripheral injection, WT mice. The format is in vivo, mouse. As to the method:
as §3, §4
Fear conditioning was performed in WT (C57Bl6/NCrl) and Y4KO mice on day 1 (context A) as described in the previous paragraph. To avoid interference with postprandial released PP, mice were fasted overnight (16 h) before injection of the drug followed by fear extinction training. Water was freely available during the fasting period. Based on our previous results, a 16 h fasting period was required to reach our experimental aim (Verma et al., 2016). A control experiment was performed without food restriction (non‐fasting). [K^30(PEG2)]hPP2‐36 (1 mg·kg^−1) or saline was injected i.p. 60 min before behavioural testing, as indicated in the timeline of the respective experiments. For extinction experiments, mice were divided into two groups, receiving an i.p. injection of either the long‐acting Y4 receptor agonist [K^30(PEG2)]hPP2‐36 (1 mg·kg^−1) or saline in controls followed after 60 min by extinction training (extinction 1; 5 CS− and 25 CS+, context B). Mice were then tested on day 3 for extinction recall under drug‐free conditions by exposure to five CS+ (context B). To exclude any bias of group selection, another extinction session was performed on day 4 (extinction 2; 25 CS+, context B) followed by extinction recall on day 5 (five CS+; context B), both under drug‐free conditions. Spontaneous recovery (day 12) and renewal (day 13) were tested by exposing the mice to five CS+ in contexts B and A respectively.

Setting [10] is: i.p. immediately after fear acquisition.

The values that follow come from article PMC4882497 (British Journal of Pharmacology, 2016).

For orientation: EC50 means the concentration giving half of the maximal effect. Read a high EC50 as weaker potency.

T1 sequence (P50391 whole entry): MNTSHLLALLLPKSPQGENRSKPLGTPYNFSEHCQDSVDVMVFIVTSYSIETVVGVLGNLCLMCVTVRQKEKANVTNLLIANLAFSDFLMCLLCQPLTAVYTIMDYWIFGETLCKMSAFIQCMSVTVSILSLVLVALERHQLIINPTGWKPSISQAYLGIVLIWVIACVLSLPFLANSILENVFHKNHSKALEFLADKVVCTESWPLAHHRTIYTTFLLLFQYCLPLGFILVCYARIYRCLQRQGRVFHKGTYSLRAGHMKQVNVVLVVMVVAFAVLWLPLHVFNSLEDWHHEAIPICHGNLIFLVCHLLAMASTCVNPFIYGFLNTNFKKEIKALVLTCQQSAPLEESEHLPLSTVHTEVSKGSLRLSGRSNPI

“[K^30(PEG2)]hPP2‐36 (H-PLEPVYPGDNATPEQMAQYAADLRRYINK(MeO‑PEG 2 kDa)LTRPRY-NH2) [lysine 30 carries 2000 Da MeO-PEG]”: the “hY4 pEC50” value in [1] is 8.0 ± 0.2. The EC50 in series [2] and in series [3] was above 1000 nM throughout. Besides, the “hY5 pEC50” value in [4] is given as 6.4 ± 0.1.
As for [K^30(PEG2)]hPP2‐36, the “context fear after injection before fear acquisition” value in series [5] (i.p. 60 min before fear acquisition, 16 h fasting, tested 24 h later) is “did not alter”. In addition, the “CS-induced fear after injection before fear acquisition” value in series [5] (i.p. 60 min before fear acquisition, 16 h fasting, tested 48 h later) is given as “did not alter”. For the same substance, in series [5] (setting [10]), the “CS-induced freezing after injection immediately after fear acquisition (consolidation)” value is “did also not change” and the “context fear after injection immediately after fear acquisition (consolidation)” value is “did also not change”. Moreover, in series [6], the “cued fear extinction (freezing to CS)” value is on record as “did not respond”. The “percentage of cFos-positive orexin neurons in the lateral hypothalamus” value in series [7] is listed as “specifically reduced”. Also, in [8], the general motor activity result is given as “did not influence general motor activity”. Further, the “cued fear extinction learning (freezing to CS)” value in [9] (1 mg/kg i.p. 60 min before extinction training, fasted 16 h, male WT mice, vs saline) is reported as “significantly facilitated extinction learning”. Besides, the “freezing at CS13 during extinction” value in series [9] (1 mg/kg i.p. 60 min before extinction, fasted 16 h, WT mice, n = 10 per group) was “reduced freezing at CS13”. The “freezing during extinction recall” value in series [9] (1 mg/kg i.p. before extinction 1, fasted 16 h, recall 24 h later drug-free and non-fasting, male WT mice, vs saline) is given as “reduction of freezing during extinction recall”. Also, the “freezing during spontaneous recovery” value in [9] (1 mg/kg i.p. before extinction training 1 (day 2), fasted 16 h, tested day 12, context B, male WT mice, n = 7 per group) is “reduced freezing”. Besides, in series [9] (1 mg/kg i.p. before extinction training 1 (day 2), fasted 16 h, tested day 13, context A, male WT mice, n = 7 per group), the freezing during renewal entry was “reduced freezing”. Also, the “cued fear extinction learning, non-fasted” value in [9] (i.p. 60 min before extinction training, non‐fasted WT mice, vs saline, n = 6 per group) is listed as “did not facilitate extinction learning”.
